Reference: patent US20070066483A1, “Plant Nourishing” (priority 2004, published 2007)

System: carnations
Assay: Preservation of cut carnations in vases of distilled water with one additive each
Format: in vivo
Settings: one cut carnation per vase, one teaspoon of additive in 1 cup distilled water; for order in which the flowers collapsed: collapsed = flower fell to a side of the stem
Experimental: The materials in the experiment used included seven vases; one cutting knife; one teaspoon each of lemon-lime soda, sugar, aspirin, house bleach, vitamins, a sports drink, including citric acid, potassium, sodium, sugar and water, eight cups of warm distilled water, and seven fresh carnations Each of the seven vases were filled with 1 cup of distilled water. One teaspoon of each additive was added to its own separate vase of distilled water. One vase only contained distilled water because it was used as the control group. Each carnation was cut on the end at a slant. […] Referring to FIG. 3, the conditions of each flower were recorded after every 24-hour period on a scale from “1” to “10.” Scores between “7” to “10” are “good,” scores between “4” to “6” are “fair,” and scores between “0” to “3” are poor. […] A flower was “collapsed” when it decayed to a point where the flower 14 fell to a side of the stem 18. Aspirin is recommended to preserve flowers by many florists because it lowers the PH level of water, making it more acidic. Acid helps water move more easily up the tubes in a flower's stem 18. However, some florists argue that aspirin can damage flowers, which this experiment supported. Bleach was used in the experiment because bleach kills bacteria, which is harmful to flowers. However, the bleach and water solution only preserved its flower for ten out of nineteen days. […] The carnation with vitamins and water solution may have collapsed because of bacteria growth that developed in the vase. The control group (water only) preserved its carnation for an average length of thirteen days. […] All three solutions contained sugar, a vital substance needed by plants to carry out photosynthesis. The flower with the lemon lime soda lasted for sixteen days, and the flower with sugar lasted for eighteen days. The sports drink and water was the solution that preserved its flower the longest, approximately twenty-nine days.

Row | Compound | order in which the flowers collapsed | time the flower was preserved (until collapse) (condition recorded every 24 hours)
1 | CC(=O)Oc1ccccc1C(=O)O [aspirin] | first flowers to collapse | –
2 | sugar | last three flowers to remain fresh | eighteen
